# Measured values published in patent US6605595B1, “Avermectin derivatives” (The Kitasato Institute, priority 1999, dated 2003).
# Assays:
# Caenorhabditis elegans = assay: Antiparasitic activity against Caenorhabditis elegans, 96 well microplate (MIC); type: in vivo; conditions: 20° C., observed after 24 and 48 hours
# Excerpt: (§1) As model insects for simple determination of antiparasitic and insecticidal activities, those insects are desired which can be easily obtained and bred in laboratories, and have no pathogenicity to a human. Caenorhabditis elegans, an unparasitic eelworm widely used in experiments of genetics, was used as a typical steam worm, and Artemia salina used as feed for tropical fish and named Brine shrimp, was used instead of insects.
# Escherichia. coli for the feed of Caenorhabditis elegans (mutant having uracil requirement) was inoculated in a seed medium for E. coli to which a small amount of uracil was added, and cultured with shaking at 27° C. for 1 day. A petri dish of 6 cm diameter was filled with 10 ml of an agar medium for eelworm proliferation, and the medium was solidified. Then 0.5 ml of the culture of E. coli was spread over the medium in the dish, and the dish was incubated at 37° C. to proliferate E. coli. A piece of the agar was collected with a platinum loop from a petri dish in which Caenorhabditis elegans successfully proliferated, and inoculated in petri dishes in which E. coli was proliferated. The petri dishes were incubated at 20° C. to proliferate Caenorhabditis elegans. Since the life of eelworm is about 2 weeks, subculture was carried out every once a week. The eelworms grown with spread on the surface of the petri dish after 3 to 5 days from subculture were used for the experiments.
# The agar medium for eelworm proliferation was prepared by mixing the solutions in the following proportion: Solution A: 100 ml, Solution B: 0.1 ml, Solution C: 0.05 ml, Solution D: 0.1 ml and Solution E: 2.5 ml (without pH adjustment), and dispensing each 10 ml portion into petri dishes of 60×15 mm.
# In distilled water, 2.0% of bact-trypton (DIFCO Co.), 0.55% of sodium chloride and 0.001% of uracil (SIGMA Co., pH 7.4) were dissolved, and the solution was sterilized in an autoclave at 121° C. for 20 minutes.
# (§2) Each well of a 96 well microplate was filled with the solution of the test compound (methanol as a solvent), and the solvent was removed using a vacuum pump, then 250 μl of the assay medium was added to each wells (the assay medium was prepared by dissolving 7.5 mM sodium hydrogencarbonate, 7.5 mM potassium chloride, 7.5 mM calcium chloride dihydrate and 7.5 mM magnesium sulfate heptahydrate in distilled water and adding 0.01% of lecithin thereto), and then the microplate was shaken using a microplate mixer for 15 minutes. To each well, a few individuals of Caenorhabditis elegans were added by softly rubbing the surface of the agar using a toothpick, or a few individuals of Artemia salina were added together with 50 μl of the buffer. The microplate was incubated at 20° C., and then the insects were observed after 24 and 48 hours under a microscope (magnification of 40×). The results were compared to those obtained without addition of the test compound, and evaluated by 4 grades.
# (§3) The evaluation results were shown by indications of 4 grades from 0 to 3.
# (§4) 1: A little week movements
# (§5) Of the 4 grades, Indications 3 and 2 were judged as effective, and Indications 1 and 0 as ineffective. In Table 9, the values for each compound are minimum inhibitory concentrations (MIC) which were required to give Indication 2 (or 3) for Caenorhabditis elegans or Artemia salina. In Table 9, Caenorhabditis elegans and Artemia salina are abbreviated as C.E. and A.S., respectively.
# Artemia salina = assay: Insecticidal model activity against Artemia salina (brine shrimp), 96 well microplate (MIC); type: in vivo; conditions: 20° C., observed after 24 and 48 hours
# Excerpt: as §1
# To a buffer for Artemia salina (obtained by dissolving 0.24% of Tris, 2.57% of sodium chloride, 0.47% of magnesium chloride, 0.07% of potassium chloride, 0.02% of sodium carbonate, 0.64% of magnesium sulfate and 0.11% of calcium chloride in distilled water and adjusting the pH to 7.1 with hydrochloric acid), dried eggs of Artemia salina [Tetra Brine Shrimp Eggs, Warner Lambert Co.] were added. The noprius larvae 1 or 2 days after hatching were used for the experiments.
# as §2, §3, §4, §5
# Lucilia cuprina larvae = assay: Blowfly larvae test / development-inhibiting activity; type: in vivo
# Description: Blowfly larvae test/Development-inhibiting activity
# Test animals: Lucilia cuprina larvae
# (§6) Solvent: Dimethylsulfoxide
# 20 mg of active compound are dissolved in one ml of dimethylsulfoxide. In order to prepare a suitable formulation the active compound solution is diluted with water to the concentration required in each case.
# Approx. 20 Lucilia cuprina larvae are introduced into a test tube containing approx. 1 cm^3 of horse-meat and 0.5 ml of the active compound preparation to be tested. After 48 hours the activity of the active compound preparation is determined. The test tubes are transferred to beakers with a sand-covered base. After a further 2 days the test tubes are removed and the pupae counted.
# The activity of the active compound preparation is assessed according to the number of flies which have hatched after 1.5 times the development period of an untreated control. 100% means that no flies have hatched: 0% means that all of the flies have hatched normally.
# [1] = test system: Adult Ctenocephalides felis; assay: Test on cat fleas / oral absorption; type: in vivo; conditions: after 24 hours
# Description: Test on cat fleas/oral absorption
# Test animals: Adult Ctenocephalides felis
# Solvent: Dimethylsulfoxide (DMSO)
# 20 μl of this formulation are added to 4 ml of citrated cow's blood and stirred.
# 20 starved adult fleas (of “Georgi” species of Ctenocephalides felis) are introduced into a chamber (of a diameter of 5 cm) which is sealed with gauze at the top and bottom. A metal cylinder, whose base is sealed with parafilm, is placed on the chamber. […] Whereas the blood is heated to 37° C. a temperature of 25° C. is adjusted in the region of the flea chambers. Controls are mixed with the same volume of DMSO without the addition of any of the compounds. The test are repeated three times.
# After 24 hours the mortality is determined in %.
# [2] = test system: Third larval stages of Periplaneta americana; assay: Test on cockroaches, immersion process; type: in vivo; conditions: immersion 60 seconds, time of reading not stated (2 and 24 hours, 7 days)
# Description: Test on cockroached—Immersion process
# Test animals: Third larval stages of Periplaneta americana
# as §6
# 20 mg of active compound are dissolved in one ml of dimethylsulfoxide. In order to prepare a suitable formulation the solution of active compound is diluted with water to the concentration required in each case.
# 20 ml of this preparation of active compound are pipetted into tubes (of a diameter of 1.5 cm and a height of 10 cm). 4 cockroach larvae are intoxicated with CO2 and transferred to a tube (of a diameter of 1.2 cm and a height of 9 cm) containing 3 holes (in the base and 5 cm below the upper rim). The tube is sealed with a stopper and kept at room temperature for 30 minutes until all of the cockroach larvae again display normal activity. The tube is immersed in the active compound formulation for 60 seconds, during which period all of the cockroach larvae are completely coverd. After the liquid has drained off the cockroach larvae are transferred to filter discs in cans made of PP (of a diameter of 9.7 cm and a height of 8 cm height).
# After 2 and 24 hours and after 7 days the activity of the active compound formulation is determined. 100% means that all of the cockroach larvae have been destroyed; 0% means that none of the cockroach larvae have been destroyed.
# Heterakis spumosa = assay: In vivo experiments with Heterakis spumosa in mice; parameters: key: 3 represents cure (no parasites detectable); 2 effective (<20% of parasites remaining); 1 trace effect (< of parasites remaining); 0 ineffective (>50% of parasites remaining); conditions: orally 4 times, mice infected with H. spumosa
# Description: In vivo experiments with Heterakis spumosa
# For the experiments male mice (strain Bor CFW, 25-30 g of body weight on receipt) were housed in Macrolon cages (3 mice per cage) and provided with water and SNIFF rat feed (10-mm pellets) ad libitum. Mice were infected with H. spumosa by oral application of 90 embryonated eggs. The eggs were obtained from female Heterakis. isolated from mouse colon 40 days after infection followed by additional three weeks incubation at 37° C. The mice were treated orally 4 times with the compounds at the dosages of 1, 0.5, 0.25, 0.1, 0.05 and 0.025 mg/kg between days 46 and 49 after infection. Compounds were suspended in Cremophor EL. Infected control mice served as untreated controls which only received Cremophor EL. Mice were killed eight days after treatment (i.e. on day 57 after infection) with carbon dioxide and cecum and colon were dissected. The number of worms which have resided in the cecum and colon were counted macroscopically. The ratios of the number of expelled worms in percent of the total number of worms was defined as level of the anthelmintic activity. Activity was evaluated on a scale 0-3 where 3 represents cure (no parasites detectable), 2 effective (<20% of parasites remaining), 1 trace effect (< of parasites remaining) and 0 ineffective (>50% of parasites remaining).
# Nematospiroides dubius = assay: In vivo experiments with Nematospiroides dubius in mice; parameters: key: 3 represents cure (no parasites detectable); 2 effective (<20% of parasites remaining); 1 trace effect (< of parasites remaining); 0 ineffective (>50% of parasites remaining); conditions: orally 4 times, mice infected with N. dubius larvae
# [3] = 100 ppm in citrated cow's blood
smiles,measurement,setting,value
CCC(C)C1OC2(C=CC1C)CC1CC(CC=C(C)C(OC3CC(OC)C(OC4CC(OC)C(=CC(=O)OC)C(C)O4)C(C)O3)C(C)C=CC=C3COC4C(O)C(C)=CC(C(=O)O1)C34O)O2 (stereo not shown) [Compound 7],C.E. minimum inhibitory concentration (MIC) required to give Indication 2 (or 3),Caenorhabditis elegans,0.01 µg/mL
same,A.S. minimum inhibitory concentration (MIC) required to give Indication 2 (or 3),Artemia salina,0.002 µg/mL
same,development-inhibiting activity (100% = no flies have hatched),Lucilia cuprina larvae; 1 ppm,100%
same,development-inhibiting activity (100% = no flies have hatched),Lucilia cuprina larvae; 10 ppm,100%
same,development-inhibiting activity (100% = no flies have hatched),Lucilia cuprina larvae; 100 ppm,100%
same,mortality of fleas,[1]; 10 ppm in citrated cow's blood,61%
same,mortality of fleas,[1]; [3],99%
CCC(C)C1OC2(C=CC1C)CC1CC(CC=C(C)C(OC3CC(OC)C(OC4CC(OC)C(=CCOC(=O)c5cccnc5)C(C)O4)C(C)O3)C(C)C=CC=C3COC4C(O)C(C)=CC(C(=O)O1)C34O)O2 (stereo not shown) [Compound 21],C.E. minimum inhibitory concentration (MIC) required to give Indication 2 (or 3),Caenorhabditis elegans,0.01 µg/mL
same,A.S. minimum inhibitory concentration (MIC) required to give Indication 2 (or 3),Artemia salina,0.002 µg/mL
same,development-inhibiting activity (100% = no flies have hatched),Lucilia cuprina larvae; 1 ppm,100%
same,development-inhibiting activity (100% = no flies have hatched),Lucilia cuprina larvae; 10 ppm,100%
same,development-inhibiting activity (100% = no flies have hatched),Lucilia cuprina larvae; 100 ppm,100%
CCC(C)C1OC2(CC3CC(CC=C(C)C(OC4CC(OC)C(OC5CC(OC)C(=CC(=O)OC)C(C)O5)C(C)O4)C(C)C=CC=C4COC5C(O)C(C)=CC(C(=O)O3)C45O)O2)CC(O)C1C (stereo not shown) [Compound 78],activity (100% = all of the cockroach larvae destroyed),[2]; 1 ppm,50%
same,activity (100% = all of the cockroach larvae destroyed),[2]; 10 ppm,50%
same,activity (100% = all of the cockroach larvae destroyed),[2]; 100 ppm,100%
CCOC(=O)C=C1C(C)OC(OC2C(C)OC(OC3C(C)=CCC4CC(CC5(C=CC(C)C(C(C)CC)O5)O4)OC(=O)C4C=C(C)C(O)C5OCC(=CC=CC3C)C45O)CC2OC)CC1OC (stereo not shown) [Compound 2],C.E. minimum inhibitory concentration (MIC) required to give Indication 2 (or 3),Caenorhabditis elegans,0.01 µg/mL
same,A.S. minimum inhibitory concentration (MIC) required to give Indication 2 (or 3),Artemia salina,0.01 µg/mL
same,anthelmintic activity score (scale 0-3),Heterakis spumosa; 0.05 mg/kg,2 (2 effective (<20% of parasites remaining))
same,anthelmintic activity score (scale 0-3),Heterakis spumosa; 0.1 mg/kg,3
same,anthelmintic activity score (scale 0-3),Heterakis spumosa; 0.25 mg/kg,3
same,anthelmintic activity score (scale 0-3),Heterakis spumosa; 0.5 mg/kg,3
same,anthelmintic activity score (scale 0-3),Heterakis spumosa; 1 mg/kg,3
same,mortality of fleas,[1]; 10 ppm in citrated cow's blood,50%
same,mortality of fleas,[1]; [3],100%
CCC(C)C1OC2(C=CC1C)CC1CC(CC=C(C)C(OC3CC(OC)C(OC4CC(OC)C(=CCOC5CCCCO5)C(C)O4)C(C)O3)C(C)C=CC=C3COC4C(O)C(C)=CC(C(=O)O1)C34O)O2 (stereo not shown) [Compound 31],C.E. minimum inhibitory concentration (MIC) required to give Indication 2 (or 3),Caenorhabditis elegans,0.05 µg/mL
same,A.S. minimum inhibitory concentration (MIC) required to give Indication 2 (or 3),Artemia salina,0.01 µg/mL
same,anthelmintic activity score (scale 0-3),Heterakis spumosa; 0.1 mg/kg,2 (2 effective (<20% of parasites remaining))
same,anthelmintic activity score (scale 0-3),Heterakis spumosa; 0.25 mg/kg,2 (2 effective (<20% of parasites remaining))
same,anthelmintic activity score (scale 0-3),Heterakis spumosa; 0.5 mg/kg,3
same,anthelmintic activity score (scale 0-3),Heterakis spumosa; 1 mg/kg,3
CCC(C)C1OC2(C=CC1C)CC1CC(CC=C(C)C(OC3CC(OC)C(OC4CC(OC)C(=CC(=O)O)C(C)O4)C(C)O3)C(C)C=CC=C3COC4C(=NO)C(C)=CC(C(=O)O1)C34O)O2 (stereo not shown) [Compound 58],anthelmintic activity score (scale 0-3),Nematospiroides dubius; 0.5 mg/kg,3
same,anthelmintic activity score (scale 0-3),Nematospiroides dubius; 1 mg/kg,3
same,mortality of fleas,[1]; 10 ppm in citrated cow's blood,73%
same,mortality of fleas,[1]; [3],100%
CCC(C)C1OC2(C=CC1C)CC1CC(CC=C(C)C(OC3CC(OC)C(OC4CC(OC)C(=CC=CC(=O)O)C(C)O4)C(C)O3)C(C)C=CC=C3COC4C(O)C(C)=CC(C(=O)O1)C34O)O2 (stereo not shown) [Compound 66],activity (100% = all of the cockroach larvae destroyed),[2]; 1 ppm,75%
same,activity (100% = all of the cockroach larvae destroyed),[2]; 10 ppm,100%
same,activity (100% = all of the cockroach larvae destroyed),[2]; 100 ppm,100%
